Results taken from patent publication US12498382B2, “Biomarkers for vitiligo” (INCYTE CORPORATION, priority 2019, dated 2025).

Tested on: HaCaT cells
Test: Concentrations of inflammatory mediators produced by HaCaT cells stimulated with TNFα and IFNγ in presence/absence of JAK inhibitors (ProCarta)
Assay type: cell-based, human
Experimental: After 48 hours, cell culture media was removed from 24 well plates and replaced with 250 uL of media containing serial diluted drug, then incubated for 15 minutes at 37° C./5% CO2. […] The final concentration of Recombinant Human Interferon gamma and Recombinant Human Tumor Necrosis Factor alpha was 25 ng/mL of each cytokine. Cytokine stimulation added to wells containing drug brought the final concentrations for each drug treatment to 25 nM, 50 nM, 100 nM, and 200 nM. Treated plates were mixed by gentle agitation for 30 seconds then incubated for 24 hours at 37° C./5% CO2. At the end of the 24 hour incubation media was immediately removed from each plate.
Media was incubated with antibody conjugated beads designed to bind to the epitopes of specific target proteins and identify the bound protein through the bead's distinctive spectral pattern. Biotinylated detection antibodies, designed to bind to different epitopes of the same target proteins, and Streptavidin-PE are added to assay plates to quantify the amount of the target proteins. Assay plates were read on the Luminex 200 and data were expressed as Net Median Fluorescence Intensity. […] The concentration of each protein was extrapolated from the antigen standard curve and concentrations were expressed as pg/mL (Table 15).

[1] = TNFα+IFNγ 25 ng/mL each, drug conc. 1st of 4 rows (cell not shown; prob. 25 nM)
[2] = TNFα+IFNγ 25 ng/mL each, drug conc. 2nd of 4 rows (cell not shown; prob. 50 nM)
[3] = TNFα+IFNγ 25 ng/mL each, drug conc. 3rd of 4 rows (cell not shown; prob. 100 nM)
[4] = TNFα+IFNγ 25 ng/mL each, drug conc. 4th of 4 rows (cell not shown; prob. 200 nM)
[5] = drug present, concentration not given

C[C@@H](O)c1nc2cnc3ccsc3c2n1[C@H]1CC[C@H](CC#N)OC1 [Cpd D, ((2R,5S)-5-{2-[(1R)-1-hydroxyethyl]-1H-imidazo[4,5-d]thieno[3,2-b]pyridin-1-yl}tetrahydro-2H-pyran-2-yl)acetonitrile]
IFN gamma concentration [1]: 24180.78 ± 2901.94 pg/mL | IL1RA concentration [1]: 5760.33 ± 367.09 pg/mL | IL1 alpha concentration [1]: 6.8 ± 0.39 pg/mL | IL1 beta concentration [1]: 8.92 ± 0.42 pg/mL | IL2 concentration [1]: 31.46 ± 1.56 pg/mL | IL4 concentration [1]: 7.2 ± 1.25 pg/mL | IL5 concentration [1]: 26.66 ± 1.72 pg/mL | IL6 concentration [1]: 743.07 ± 36.3 pg/mL | IL7 concentration [1]: 2.16 ± 0.11 pg/mL | IL8 concentration [1]: 2820.21 ± 159.05 pg/mL | IL9 concentration [1]: 3.7 ± 0^ pg/mL | IL10 concentration [1]: 0.76 ± 0.08 pg/mL | IL12p70 concentration [1]: 1.88 ± 0.19 pg/mL | IL13 concentration [1]: 2.67 ± 0.24 pg/mL | IL15 concentration [1]: 4.2 ± 0.86 pg/mL | IL17A concentration [1]: 3.84 ± 0.3 pg/mL | IL18 concentration [1]: 159.38 ± 4.31 pg/mL | IL21 concentration [1]: 2.71 ± 0.18 pg/mL | IL22 concentration [1]: 7.83 ± 0.75 pg/mL | IL23 concentration [1]: 7.43 ± 0 pg/mL | IL27 concentration [1]: 7.42 ± 0.9 pg/mL | IL31 concentration [1]: 2.97 ± 0.37 pg/mL | IP-10/CXCL10 concentration [1]: 3903.67 ± 366.97 pg/mL | LIF concentration [1]: 65.71 ± 2.6 pg/mL | MCP1 concentration [1]: 21968.74 ± 4662.32 pg/mL | MIP1 alpha concentration [1]: 102.06 ± 4.18 pg/mL | MIP1 beta concentration [1]: 313.64 ± 8.9 pg/mL | PDGF-BB concentration [1]: 4.23 ± 0.18 pg/mL | PIGF-1 concentration [1]: 59.56 ± 3.2 pg/mL | RANTES concentration [1]: 237.57 ± 17.46 pg/mL | SCF concentration [1]: 4.18 ± 0.24 pg/mL | SDF-1 alpha concentration [1]: 3456.41 ± 158.06 pg/mL | TNF alpha concentration [1]: 8951.15 ± 870.67 pg/mL | TNF beta concentration [1]: 4.62 ± 0.49 pg/mL | VEGF-A concentration [1]: 1303.84 ± 56.86 pg/mL | VEGF-D concentration [1]: 8.7 ± 0.52 pg/mL | IFN gamma concentration [2]: 25506.14 ± 3960.86 pg/mL | IL1RA concentration [2]: 5709.52 ± 391.3 pg/mL | IL1 alpha concentration [2]: 6.76 ± 0.4 pg/mL | IL1 beta concentration [2]: 8.82 ± 0.46 pg/mL | IL2 concentration [2]: 29.16 ± 2.01 pg/mL | IL4 concentration [2]: 5.9 ± 1.18 pg/mL | IL5 concentration [2]: 28.49 ± 1.85 pg/mL | IL6 concentration [2]: 698.04 ± 29.79 pg/mL | IL7 concentration [2]: 2.14 ± 0.07 pg/mL | IL8 concentration [2]: 2907.08 ± 193.16 pg/mL | IL9 concentration [2]: 3.37 ± 0.33 pg/mL | IL10 concentration [2]: 0.67 ± 0.07 pg/mL | IL12p70 concentration [2]: 1.69 ± 0.19 pg/mL | IL13 concentration [2]: 2.21 ± 0.27 pg/mL | IL15 concentration [2]: 2.82 ± 0.72 pg/mL | IL17A concentration [2]: 4.15 ± 0.57 pg/mL | IL18 concentration [2]: 156.12 ± 3.47 pg/mL | IL21 concentration [2]: 2.13 ± 0.39 pg/mL | IL22 concentration [2]: 8.9 ± 0^ pg/mL | IL23 concentration [2]: 7.43 ± 0 pg/mL | IL27 concentration [2]: 5.51 ± 1.25 pg/mL | IL31 concentration [2]: 3.43 ± 0.31 pg/mL | IP-10/CXCL10 concentration [2]: 3998.62 ± 456.34 pg/mL | LIF concentration [2]: 66.01 ± 3.21 pg/mL | MCP1 concentration [2]: 25836.84 ± 10636.84 pg/mL | MIP1 alpha concentration [2]: 96.35 ± 3.57 pg/mL | MIP1 beta concentration [2]: 316.87 ± 10.18 pg/mL | PDGF-BB concentration [2]: 4.36 ± 0.18 pg/mL | PIGF-1 concentration [2]: 56.72 ± 3.48 pg/mL | RANTES concentration [2]: 237.55 ± 21.78 pg/mL | SCF concentration [2]: 4.1 ± 0.21 pg/mL | SDF-1 alpha concentration [2]: 3450.69 ± 158.13 pg/mL | TNF alpha concentration [2]: 9862.6 ± 1041^ pg/mL | TNF beta concentration [2]: 5.03 ± 0.38 pg/mL | VEGF-A concentration [2]: 1286.84 ± 61.29 pg/mL | VEGF-D concentration [2]: 8.49 ± 0.72 pg/mL | IFN gamma concentration [3]: 29392.77 ± 4832.25 pg/mL | IL1RA concentration [3]: 5879.83 ± 410.09 pg/mL | IL1 alpha concentration [3]: 6.92 ± 0.4 pg/mL | IL1 beta concentration [3]: 8.63 ± 0.36 pg/mL | IL2 concentration [3]: 29.23 ± 1.62 pg/mL | IL4 concentration [3]: 5.13 ± 0.78 pg/mL | IL5 concentration [3]: 27.43 ± 2.11 pg/mL | IL6 concentration [3]: 703.99 ± 42.22 pg/mL | IL7 concentration [3]: 2.15 ± 0.14 pg/mL | IL8 concentration [3]: 3061.2 ± 217.26 pg/mL | IL9 concentration [3]: 3.58 ± 0.24 pg/mL | IL10 concentration [3]: 0.81 ± 0.07 pg/mL | IL12p70 concentration [3]: 1.75 ± 0.22 pg/mL | IL13 concentration [3]: 2.98 ± 0.4 pg/mL | IL15 concentration [3]: 3.29 ± 0.9 pg/mL | IL17A concentration [3]: 3.57 ± 0.45 pg/mL | IL18 concentration [3]: 156.97 ± 5.2 pg/mL | IL21 concentration [3]: 2.64 ± 0.24 pg/mL | IL22 concentration [3]: 8.21 ± 0.69 pg/mL | IL23 concentration [3]: 7.43 ± 0 pg/mL | IL27 concentration [3]: 5.92 ± 0.88 pg/mL | IL31 concentration [3]: 4.14 ± 0.48 pg/mL | IP-10/CXCL10 concentration [3]: 4100.26 ± 502.48 pg/mL | LIF concentration [3]: 70.02 ± 3.89 pg/mL | MCP1 concentration [3]: 15200 ± 0 pg/mL | MIP1 alpha concentration [3]: 96.22 ± 3.58 pg/mL | MIP1 beta concentration [3]: 317.95 ± 8.1 pg/mL | PDGF-BB concentration [3]: 4.71 ± 0.23 pg/mL | PIGF-1 concentration [3]: 59.49 ± 3.52 pg/mL | RANTES concentration [3]: 241.39 ± 22.79 pg/mL | SCF concentration [3]: 4.29 ± 0.29 pg/mL | SDF-1 alpha concentration [3]: 3563.68 ± 157.35 pg/mL | TNF alpha concentration [3]: 10525.46 ± 1077.11 pg/mL | TNF beta concentration [3]: 4.47 ± 0.37 pg/mL | VEGF-A concentration [3]: 1346.72 ± 67.56 pg/mL | VEGF-D concentration [3]: 9.64 ± 0.91 pg/mL | IFN gamma concentration [4]: 26972.77 ± 4164.13 pg/mL | IL1RA concentration [4]: 5450.17 ± 388.11 pg/mL | IL1 alpha concentration [4]: 6.3 ± 0.35 pg/mL | IL1 beta concentration [4]: 8.81 ± 0.35 pg/mL | IL2 concentration [4]: 31.88 ± 1.61 pg/mL | IL4 concentration [4]: 8.19 ± 1.39 pg/mL | IL5 concentration [4]: 25.61 ± 1.98 pg/mL | IL6 concentration [4]: 646.2 ± 32.46 pg/mL | IL7 concentration [4]: 2.14 ± 0.12 pg/mL | IL8 concentration [4]: 2893.51 ± 190.51 pg/mL | IL9 concentration [4]: 4.44 ± 0.54 pg/mL | IL10 concentration [4]: 0.84 ± 0.08 pg/mL | IL12p70 concentration [4]: 1.7 ± 0.2 pg/mL | IL13 concentration [4]: 2.52 ± 0.42 pg/mL | IL15 concentration [4]: 3.37 ± 0.8 pg/mL | IL17A concentration [4]: 4.04 ± 0.49 pg/mL | IL18 concentration [4]: 155.77 ± 4.15 pg/mL | IL21 concentration [4]: 2.84 ± 0.04 pg/mL | IL22 concentration [4]: 8.39 ± 0.51 pg/mL | IL23 concentration [4]: 7.43 ± 0 pg/mL | IL27 concentration [4]: 8.3 ± 1.2 pg/mL | IL31 concentration [4]: 3.05 ± 0.38 pg/mL | IP-10/CXCL10 concentration [4]: 4407.56 ± 645.63 pg/mL | LIF concentration [4]: 67.62 ± 3.58 pg/mL | MCP1 concentration [4]: 18512.1 ± 3312.1 pg/mL | MIP1 alpha concentration [4]: 88.49 ± 5.06 pg/mL | MIP1 beta concentration [4]: 316.74 ± 9.29 pg/mL | PDGF-BB concentration [4]: 4.75 ± 0.16 pg/mL | PIGF-1 concentration [4]: 55.63 ± 3.23 pg/mL | RANTES concentration [4]: 238.51 ± 23.12 pg/mL | SCF concentration [4]: 4.07 ± 0.21 pg/mL | SDF-1 alpha concentration [4]: 3464.97 ± 155.2 pg/mL | TNF alpha concentration [4]: 9777.73 ± 966.87 pg/mL | TNF beta concentration [4]: 4.96 ± 0.56 pg/mL | VEGF-A concentration [4]: 1256.89 ± 60.57 pg/mL | VEGF-D concentration [4]: 8.03 ± 0.93 pg/mL | IL1 alpha concentration [5]: 0.26 ± 0.05 pg/mL | IL1 beta concentration [5]: 0.98 ± 0.12 pg/mL | IL2 concentration [5]: 2.4 ± 0.09 pg/mL | IL4 concentration [5]: 5.34 ± 0.89 pg/mL | IL5 concentration [5]: 2.88 ± 0.36 pg/mL | IL6 concentration [5]: 28.84 ± 1.89 pg/mL | IL7 concentration [5]: 3.44 ± 0.16 pg/mL | IL8 concentration [5]: 257.62 ± 7.07 pg/mL | IL9 concentration [5]: 3.98 ± 0.36 pg/mL | IL10 concentration [5]: 0.43 ± 0.11 pg/mL | IL12p70 concentration [5]: 2.15 ± 0.26 pg/mL | IL13 concentration [5]: 1.26 ± 0.15 pg/mL | IL15 concentration [5]: 3.2 ± 0.71 pg/mL | IL17A concentration [5]: 1.22 ± 0.2 pg/mL | IL18 concentration [5]: 6.54 ± 0.37 pg/mL | IL21 concentration [5]: 2.5 ± 0.3 pg/mL | IL22 concentration [5]: 8.08 ± 0.82 pg/mL | IL23 concentration [5]: 6.43 ± 1.28 pg/mL | IL27 concentration [5]: 11.9 ± 2.31 pg/mL | IL31 concentration [5]: 3.7 ± 0.06 pg/mL | IP-10/CXCL10 concentration [5]: 20.23 ± 0.48 pg/mL | LIF concentration [5]: 22.66 ± 0.82 pg/mL | MCP1 concentration [5]: 1306.83 ± 54.65 pg/mL | MIP1 alpha concentration [5]: 2.75 ± 0.26 pg/mL | MIP1 beta concentration [5]: 113.08 ± 4.82 pg/mL | PDGF-BB concentration [5]: 1.93 ± 0.18 pg/mL | PIGF-1 concentration [5]: 20.55 ± 1.16 pg/mL | RANTES concentration [5]: 10.17 ± 0.54 pg/mL | SCF concentration [5]: 1.91 ± 0.15 pg/mL | SDF-1 alpha concentration [5]: 990.69 ± 48.87 pg/mL | TNF alpha concentration [5]: 2.41 ± 0.7 pg/mL | TNF beta concentration [5]: 4.42 ± 0.57 pg/mL | VEGF-A concentration [5]: 598.11 ± 16.67 pg/mL | VEGF-D concentration [5]: 3.55 ± 0.66 pg/mL
